From publication PMC6003189, “Molecular and biochemical characterization of a novel isoprene synthase from Metrosideros polymorpha” (BMC Plant Biology, 2018)

System: T1, MpIspS
T1 construct: gene IspS
Conditions: 50 mM MOPS pH 6.0, 5 mM Mn^2+, 50 °C, 10 min; fit below 15 mM DMAPP

CC(C)=CCOP(=O)(O)OP(=O)(O)O [DMAPP]
Km: 8.11 mM
